Experimental data from PubChem BioAssay AID1745844 (Carcinogenic Potency Database (CPDB), 2022).

Tested on: rodent lifetime carcinogenesis bioassay, tumor incidence TD50
Assay: carcinogenic potency in animals, long-term in vivo studies, CPDB compilation (AID 1745844)
Settings: mouse, strain B6C3F1, inhaled

Question: Which results are given for `C=CC=C`?
Answer: TD50 (females, site: Harderian gland, lesion: adenocarcinoma + adenoma + adenoma, bilateral, dosed 83 weeks, study length 104 weeks): 26.2 mg/kg/day; TD50 (females, site: Harderian gland, lesion: adenoma + adenoma, bilateral, dosed 83 weeks, study length 104 weeks): 26.2 mg/kg/day; TD50 (females, site: Zymbal's gland, lesion: adenoma + carcinoma, dosed 83 weeks, study length 104 weeks): 3540 mg/kg/day; TD50 (females, site: all sites + forestomach + Harderian gland + heart + liver + lung + mammary gland + ovary, lesion: histiocytic sarcoma + malignant lymphoma, mixed type + malignant lymphoma, lymphocytic type + malignant lymphoma, undifferenti, dosed 83 weeks, study length 104 weeks): 6.79 mg/kg/day; TD50 (females, site: all sites + forestomach + heart + liver + lung + mammary gland + ovary, lesion: malignant lymphoma, NOS + squamous-cell papilloma + hemangiosarcoma + hepatocellular adenoma + hepatocellular carcinoma + alveolar, dosed 61 weeks, study length 61 weeks): 53 mg/kg/day; TD50 (females, site: all sites, lesion: hemangioma + hemangiosarcoma, dosed 83 weeks, study length 104 weeks): 35 mg/kg/day; TD50 (females, site: all sites, lesion: hemangiosarcoma, dosed 83 weeks, study length 104 weeks): 44.2 mg/kg/day; TD50 (females, site: all sites, lesion: histiocytic sarcoma + malignant lymphoma, mixed type + malignant lymphoma, lymphocytic type + malignant lymphoma, undifferenti, dosed 83 weeks, study length 104 weeks): 27.4 mg/kg/day; TD50 (females, site: all sites, lesion: histiocytic sarcoma, dosed 83 weeks, study length 104 weeks): 125 mg/kg/day; TD50 (females, site: all sites, lesion: malignant lymphoma, NOS, dosed 61 weeks, study length 61 weeks): 270 mg/kg/day; TD50 (females, site: all sites, lesion: malignant lymphoma, lymphocytic type, dosed 83 weeks, study length 104 weeks): 74.9 mg/kg/day; TD50 (females, site: all sites, lesion: malignant lymphoma, mixed type + malignant lymphoma, lymphocytic type + malignant lymphoma, undifferentiated type + malignant, dosed 83 weeks, study length 104 weeks): 35.2 mg/kg/day; TD50 (females, site: any site (literature study), lesion: several types, types named in the paper, dosed 61 weeks, study length 61 weeks): 41.5 mg/kg/day; TD50 (females, site: any site (literature study), lesion: several types, types named in the paper, dosed 83 weeks, study length 104 weeks): 6.28 mg/kg/day; TD50 (females, site: forestomach, lesion: papilloma, NOS + squamous-cell carcinoma + squamous-cell papilloma, dosed 61 weeks, study length 61 weeks): 462 mg/kg/day; TD50 (females, site: forestomach, lesion: papilloma, NOS + squamous-cell papilloma, dosed 61 weeks, study length 61 weeks): 483 mg/kg/day; TD50 (females, site: forestomach, lesion: squamous-cell carcinoma + squamous-cell papilloma, dosed 61 weeks, study length 61 weeks): 396 mg/kg/day; TD50 (females, site: forestomach, lesion: squamous-cell carcinoma + squamous-cell papilloma, dosed 83 weeks, study length 104 weeks): 83.9 mg/kg/day; TD50 (females, site: forestomach, lesion: squamous-cell carcinoma, dosed 83 weeks, study length 104 weeks): 257 mg/kg/day; TD50 (females, site: forestomach, lesion: squamous-cell papilloma, dosed 61 weeks, study length 61 weeks): 461 mg/kg/day; TD50 (females, site: forestomach, lesion: squamous-cell papilloma, dosed 83 weeks, study length 104 weeks): 126 mg/kg/day; TD50 (females, site: heart + liver + subcutaneous tissue, lesion: hemangiosarcoma, dosed 61 weeks, study length 61 weeks): 147 mg/kg/day; TD50 (females, site: heart, lesion: hemangiosarcoma, dosed 61 weeks, study length 61 weeks): 283 mg/kg/day; TD50 (females, site: heart, lesion: hemangiosarcoma, dosed 83 weeks, study length 104 weeks): 104 mg/kg/day; TD50 (females, site: kidney, lesion: tubule adenoma, dosed 83 weeks, study length 104 weeks): 1060 mg/kg/day; TD50 (females, site: liver, lesion: hepatocellular adenoma + hepatocellular carcinoma + neoplastic nodule, dosed 61 weeks, study length 61 weeks): 1170 mg/kg/day; TD50 (females, site: liver, lesion: hepatocellular adenoma + hepatocellular carcinoma + neoplastic nodule, dosed 83 weeks, study length 104 weeks): 22.8 mg/kg/day; TD50 (females, site: liver, lesion: hepatocellular adenoma + hepatocellular carcinoma, dosed 61 weeks, study length 61 weeks): 1170 mg/kg/day; TD50 (females, site: liver, lesion: hepatocellular adenoma + hepatocellular carcinoma, dosed 83 weeks, study length 104 weeks): 22.8 mg/kg/day; TD50 (females, site: liver, lesion: hepatocellular adenoma, dosed 61 weeks, study length 61 weeks): 1590 mg/kg/day; TD50 (females, site: liver, lesion: hepatocellular adenoma, dosed 83 weeks, study length 104 weeks): 28.5 mg/kg/day; TD50 (females, site: liver, lesion: hepatocellular carcinoma, dosed 83 weeks, study length 104 weeks): 50.5 mg/kg/day; TD50 (females, site: lung, lesion: alveolar/bronchiolar adenoma + alveolar/bronchiolar carcinoma + adenocarcinoma, dosed 83 weeks, study length 104 weeks): 12.4 mg/kg/day; TD50 (females, site: lung, lesion: alveolar/bronchiolar adenoma + alveolar/bronchiolar carcinoma, dosed 61 weeks, study length 61 weeks): 203 mg/kg/day; TD50 (females, site: lung, lesion: alveolar/bronchiolar adenoma + alveolar/bronchiolar carcinoma, dosed 83 weeks, study length 104 weeks): 13.8 mg/kg/day; TD50 (females, site: lung, lesion: alveolar/bronchiolar adenoma, dosed 61 weeks, study length 61 weeks): 259 mg/kg/day; TD50 (females, site: lung, lesion: alveolar/bronchiolar adenoma, dosed 83 weeks, study length 104 weeks): 20.3 mg/kg/day; TD50 (females, site: lung, lesion: alveolar/bronchiolar carcinoma + adenocarcinoma, dosed 83 weeks, study length 104 weeks): 23.9 mg/kg/day; TD50 (females, site: lung, lesion: alveolar/bronchiolar carcinoma, dosed 61 weeks, study length 61 weeks): 227 mg/kg/day; TD50 (females, site: mammary gland, lesion: acinar-cell carcinoma, dosed 61 weeks, study length 61 weeks): 1030 mg/kg/day; TD50 (females, site: mammary gland, lesion: adenoacanthoma, dosed 83 weeks, study length 104 weeks): 87.7 mg/kg/day; TD50 (females, site: mammary gland, lesion: adenocarcinoma + adenoacanthoma + mixed tumor, malignant, dosed 83 weeks, study length 104 weeks): 47.4 mg/kg/day; TD50 (females, site: mammary gland, lesion: adenocarcinoma, dosed 83 weeks, study length 104 weeks): 93.3 mg/kg/day; TD50 (females, site: mammary gland, lesion: mixed tumor, malignant, dosed 83 weeks, study length 104 weeks): 2710 mg/kg/day; TD50 (females, site: ovary, lesion: adenoma + mixed tumor, benign, dosed 83 weeks, study length 104 weeks): 78.9 mg/kg/day; TD50 (females, site: ovary, lesion: adenoma, dosed 83 weeks, study length 104 weeks): 217 mg/kg/day; TD50 (females, site: ovary, lesion: granulosa-cell carcinoma + granulosa-cell tumor, dosed 61 weeks, study length 61 weeks): 370 mg/kg/day; TD50 (females, site: ovary, lesion: granulosa-cell carcinoma, dosed 61 weeks, study length 61 weeks): 7580 mg/kg/day; TD50 (females, site: ovary, lesion: granulosa-cell tumor, benign + granulosa-cell tumor, bilateral, dosed 83 weeks, study length 104 weeks): 98 mg/kg/day; TD50 (females, site: ovary, lesion: granulosa-cell tumor, benign + granulosa-cell tumor, malignant, dosed 83 weeks, study length 104 weeks): 65.4 mg/kg/day; TD50 (females, site: ovary, lesion: granulosa-cell tumor, malignant, dosed 83 weeks, study length 104 weeks): 198 mg/kg/day; TD50 (females, site: ovary, lesion: mixed tumor, benign, dosed 83 weeks, study length 104 weeks): 202 mg/kg/day; TD50 (females, site: subcutaneous tissue, lesion: neurofibrosarcoma + sarcoma, dosed 83 weeks, study length 104 weeks): 128 mg/kg/day; TD50 (females, site: subcutaneous tissue, lesion: sarcoma, dosed 83 weeks, study length 104 weeks): 131 mg/kg/day; TD50 (males, site: Harderian gland, lesion: adenocarcinoma + adenocarcinoma, bilateral, dosed 13 weeks, study length 104 weeks): 63.5 mg/kg/day
